US5130320A, “Glycosidase inhibiting 1,3-dideoxy-3-fluoronojirimycin” (Monsanto Company, priority 1991, dated 1992)

How the values were obtained:
Type in all cases: biochemical
[1] = target: T1, ALPHA MANNOSIDASE (Canavalia ensiformis, UniProt C0HJB3); assay: Alpha mannosidase inhibition, pH 4.5; details: for inhibition at 1000 µM: @ 1 mM; for inhibition at 5000 µM: @ 5 mM
T1 sequence (C0HJB3 1-981): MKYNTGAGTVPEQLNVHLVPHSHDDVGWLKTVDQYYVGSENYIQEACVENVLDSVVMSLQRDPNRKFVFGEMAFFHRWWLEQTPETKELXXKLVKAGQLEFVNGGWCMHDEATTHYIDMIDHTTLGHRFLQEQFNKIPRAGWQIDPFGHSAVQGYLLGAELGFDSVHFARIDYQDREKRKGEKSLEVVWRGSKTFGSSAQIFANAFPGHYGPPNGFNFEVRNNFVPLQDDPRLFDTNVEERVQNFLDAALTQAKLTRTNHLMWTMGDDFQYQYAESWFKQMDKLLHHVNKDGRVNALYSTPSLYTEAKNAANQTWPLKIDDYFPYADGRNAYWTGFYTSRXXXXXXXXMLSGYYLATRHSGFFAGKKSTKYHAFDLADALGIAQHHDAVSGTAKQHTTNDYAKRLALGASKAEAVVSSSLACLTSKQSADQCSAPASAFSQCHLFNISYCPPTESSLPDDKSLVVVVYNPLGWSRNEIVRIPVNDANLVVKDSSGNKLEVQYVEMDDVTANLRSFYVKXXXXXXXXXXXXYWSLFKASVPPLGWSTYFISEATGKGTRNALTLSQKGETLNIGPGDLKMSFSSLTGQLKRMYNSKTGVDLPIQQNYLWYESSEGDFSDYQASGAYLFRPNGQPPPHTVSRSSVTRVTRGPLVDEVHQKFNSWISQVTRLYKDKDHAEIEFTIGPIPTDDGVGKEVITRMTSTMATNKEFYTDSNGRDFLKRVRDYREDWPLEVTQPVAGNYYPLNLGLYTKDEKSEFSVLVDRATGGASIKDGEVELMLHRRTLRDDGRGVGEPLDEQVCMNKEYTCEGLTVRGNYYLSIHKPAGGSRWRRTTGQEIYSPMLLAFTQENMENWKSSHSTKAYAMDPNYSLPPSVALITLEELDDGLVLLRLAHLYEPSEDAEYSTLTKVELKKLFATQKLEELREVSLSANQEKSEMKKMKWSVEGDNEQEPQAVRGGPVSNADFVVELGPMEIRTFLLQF

[2] = tested on: almond β-glucosidase; assay: β-Glucosidase inhibition assay, pH 4.8
Experimental: (§1) The glycosidase inhibition activity is determined by modifying an assay procedure described in Evans et al, Phytochemistry, 22, pp. 768-770 (1983). More particularly, yeast α-glucosidase and almond β-glucosidase activities were measured by the Evans et al method which was modified by assaying activities at pH 7.4 in N-2-hydroxyethylpiperazine-N-2-ethane sulfonic acid (HEPES) buffer, measuring in 96 well microtiter plates, and including 10% DMSO in control and test samples.
(§2) The release of p-nitrophenol from the substrate p-nitrophenylglycoside was measured spectrophotometrically in the presence and absence of test compound. Each assay included a known inhibitor of the enzyme as a standard. IC50 values were determined for compounds which inhibited the enzymes more than 50% at a 1 millimolar concentration.
To 100 ul 50 mM sodium citrate buffer, pH 4.8, in a microtiter plate, 20 ul test compound in DMSO (DMSO alone in control) and 20 ul (0.017 units) β-glucosidase (Sigma) in citrate buffer were added and pre-incubated at room temperature 15 minutes. 20 ul 2.50 mM p-nitrophenyl-β-D-glucopyranside in citrate buffer was added as substrate and incubated at room temperature minutes (reaction is linear for at least 30 minutes). 50 ul 0.4 M NaOH was added and the absorption change at 405 nm was determined utilizing a Biotek EIA Autoreader. Each sample was tested in triplicate. IC50 values were determined from the linear portion of the log concentration vs percent inhibition curve obtained from a minimum of 3 points. Castanospermine was used as standard inhibitor.

[3] = target: T2, yeast α-glucosidase (Saccharomyces cerevisiae, UniProt P53341); assay: α-Glucosidase inhibition assay, pH 7.4; details: read-out: ALPHA GLUCOSIDASE inhibition; for inhibition at 1000 µM: @ 1 mM; for inhibition at 5000 µM: @ 5 mM
T2 construct: purchased Sigma
T2 sequence (P53341 whole entry): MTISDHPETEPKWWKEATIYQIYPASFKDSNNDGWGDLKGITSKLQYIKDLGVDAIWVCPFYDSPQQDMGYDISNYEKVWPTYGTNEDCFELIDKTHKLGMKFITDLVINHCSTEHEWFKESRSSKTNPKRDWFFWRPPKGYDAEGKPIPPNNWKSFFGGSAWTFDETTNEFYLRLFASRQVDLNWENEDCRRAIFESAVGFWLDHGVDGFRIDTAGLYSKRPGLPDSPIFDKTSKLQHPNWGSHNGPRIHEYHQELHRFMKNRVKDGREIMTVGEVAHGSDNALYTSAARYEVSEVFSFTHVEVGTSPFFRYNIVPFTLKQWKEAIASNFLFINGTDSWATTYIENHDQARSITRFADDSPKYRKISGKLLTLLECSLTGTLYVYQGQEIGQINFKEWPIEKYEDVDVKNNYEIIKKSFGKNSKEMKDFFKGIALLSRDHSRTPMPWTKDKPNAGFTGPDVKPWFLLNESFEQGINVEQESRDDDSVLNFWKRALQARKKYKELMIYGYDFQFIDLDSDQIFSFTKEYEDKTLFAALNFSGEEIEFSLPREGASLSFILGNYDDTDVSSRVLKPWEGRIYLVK
Experimental: as §1, §2
To 100 ul 50 mM HEPES buffer, pH 7.4, in a microtiter plate, 20 ul test compound in DMSO (DMSO alone in control)and 40 ul (0.013 units) yeast α-glucosidase (Sigma) in HEPES buffer were added and pre-incubated at room temperature 15 minutes. 40 ul 1.25 mM p-nitrophenyl-α-D-gl-ucopyranoside (Sigma) in HEPES buffer, as substrate was added and the absorbance change at 405 nm was monitored in a Biotek EIA Autoreader. Absorption change was measured at 15 to 25 minutes (reaction was linear for at least 30 minutes). Each sample was tested in triplicate. IC50 values were determined from the linear portion of the log concentration vs percent inhibition curve obtained from a minimum of 3 points. Deoxynojirimycin was used as standard inhibitor.

[4] = target: T1, ALPHA MANNOSIDASE; assay: Alpha mannosidase inhibition, pH 7.4; details: for inhibition at 1000 µM: @ 1 mM; for inhibition at 5000 µM: @ 5 mM
[5] = tested on: almond β-glucosidase; assay: β-Glucosidase inhibition assay, pH 7.4
Experimental: as §1, §2
To 100 ul 50 mM HEPES buffer, pH 7.4, in a microtiter plate, 20 ul test compound in DMSO (DMSO alone in control) and 40 ul (0.136 units) β-glucosidase (Sigma) in HEPES buffer were added and pre-incubated at room temperature 15 minutes. 40 ul 1.25 mM p-nitrophenyl-β-D-glucopyranoside in HEPES buffer was added as substrate and the absorbance change at 405 nm was monitored utilizing a Biotek EIA Autoreader. Absorption change was measured at 15 to 25 minutes (reaction is linear for at least 30 minutes). Each sample was tested in triplicate. IC50 values were determined from the linear portion of the log concentration vs percent inhibition curve obtained from a minimum of 3 points. Castanospermine was used as standard inhibitor.

Compound	inhibition at 1000 µM [1] [%]	inhibition at 5000 µM [1] [%]	BETA GLUCOSIDASE-pH 4.8 inhibition ([2]; @ 1 mM) [%]	BETA GLUCOSIDASE-pH 4.8 inhibition ([2]; @ 5 mM) [%]	inhibition at 1000 µM [3] [%]	inhibition at 5000 µM [3] [%]	inhibition at 1000 µM [4] [%]	inhibition at 5000 µM [4] [%]	BETA GLUCOSIDASE-pH 7.4 inhibition ([5]; @ 1 mM) [%]	BETA GLUCOSIDASE-pH 7.4 inhibition ([5]; @ 5 mM) [%]
CCCCN1C[C@H](O)[C@@H](F)[C@H](O)[C@H]1CO [Compound 2, N-butyl-1,3-dideoxy-3-fluoronojirimycin]	6	5	8	-10	11	18	7	11	0	2
OC[C@H]1NC[C@H](O)[C@@H](F)[C@@H]1O [Compound 1, 1,3-dideoxy-3-fluoronojirimycin]	11	19	4	10	26	63	10	30	3	24
